Measurements published in patent US12403129B2, “Isotope-enriched 3-amino-1-propanesulfonic acid derivatives for the treatment of cerebrovascular disease” (RISEN (SUZHOU) PHARMA TECH CO., LTD., priority 2021, dated 2025).

Assays:
[1] = system: mouse model of dementia caused by cerebral ischemia-reperfusion; assay: Cognitive tests in mouse model of dementia caused by cerebral ischemia-reperfusion; format: in vivo, C57BL/6J mice
Method: (§1) 140 healthy C57BL/6J mice, including 70 males and 70 females, were used. 1% Pentobarbital Sodium (50 mg/kg) was injected intraperitoneally to anesthetize the mice. The back position was fixed, the neck hair was removed, and the common carotid arteries were cut along the middle of the neck after iodophor disinfection. The common carotid arteries were separated, clamped with a noninvasive artery clamp for 15 minutes, released for 10 minutes, and then clamped for 10 minutes. Penicillin powder was then applied to suture muscles and skin. The sham operation group was not clamped, and other operations were the same as for the model group. […] Mice were divided into 6 groups: sham operation group, model group, positive control group (donepezil) and test compound group (different doses). Test compounds were administered by gavage to each group on the next day of modeling. The compound group was given compounds once a day in the morning and evening, and the volume of each gavage was 10 ml/kg. Half of the animals in the sham operation group and the model group were given the same amount of distilled water, and half of the animals were given the same amount of 1% sodium carboxymethylcellulose solution. From the 16th day of administration, Y maze, new object discrimination (days 17-20), spontaneous activity (days 20), Morris water maze (days 23-28) and dark avoidance experiment (days 29-30) were carried out successively. During the behavioral experiment, the administration of compound was continued until the animals were sacrificed.
The main pathological index included: investigation of the improvement of learning and memory impairment by the compound in the pathogenic model of cerebral ischemia-reperfusion using behavioral experimental methods such as Y maze, new object discrimination, spontaneous activity, Morris water maze and passive avoidance experiment (dark avoidance); investigation of the ultrastructure of nerve cells (including nucleus, mitochondria and synapse) by HE staining and immunofluorescence; detection of expression of synaptic associated proteins SYP and PSD95 by Western blotting; and detection of expression of apoptosis-related proteins Bcl-2 and Bax by Western blotting. The experimental results for compound 4 on the expression of SYP and PSD95 in the hippocampus of dementia model mice induced by cerebral ischemia-reperfusion are shown in FIG. 5 and FIG. 6 and in Table V below. Experimental results were analyzed statistically using IBM SPSS 21.0 software. The differences between groups were compared by one-way ANOVA or two-way ANOVA (water maze directional navigation) and LSD test. Experimental data were expressed by “mean±SEM”, P<0.05.

[2] = system: neuronal cells in hippocampal CA1 area and CA3 area and cerebral cortex; assay: Neuronal cell morphology in ischemia-reperfusion dementia mice; format: in vivo, C57BL/6J mice; conditions: compared with the model group
Method: as §1, with “From the 16th day of administration, Y maze, new object discrimination (days 17-20), spontaneous activity (days 20), Morris water maze (days 23-28) and dark avoidance experiment (days 29-30) were carried out successively. During the behavioral experiment, the administration of compound was continued until the animals were sacrificed.” left out
(§2) The main pathological index included: investigation of the improvement of learning and memory impairment by the compound in the pathogenic model of cerebral ischemia-reperfusion using behavioral experimental methods such as Y maze, new object discrimination, spontaneous activity, Morris water maze and passive avoidance experiment (dark avoidance); investigation of the ultrastructure of nerve cells (including nucleus, mitochondria and synapse) by HE staining and immunofluorescence; detection of expression of synaptic associated proteins SYP and PSD95 by Western blotting; and detection of expression of apoptosis-related proteins Bcl-2 and Bax by Western blotting. […] Experimental results were analyzed statistically using IBM SPSS 21.0 software. […]

[3] = system: PSD95; assay: PSD95 expression by Western blotting, multiple cerebral infarction dementia rats; format: in vivo, SD rats; conditions: compared with the model group, p<0.05
Method: 135 SPF grade SD rats (75 females, 60 males, weighing 200-220 g) were used. Anesthesia was performed by intraperitoneal injection of 3.5% chloral hydrate (350 mg/kg). After dorsal fixation, neck hair removal and iodophor disinfection, animals were cut along the middle of the neck to separate the right common carotid artery, external carotid artery and internal carotid artery. […]
The main pathological indexes included investigation of the improvement of learning and memory impairment in the dementia model animal by test compound using behavioral experimental methods such as Y maze, new object discrimination, Morris water maze and passive avoidance test (dark avoidance); investigation of the protective effect of test compound on mitochondria by detecting the content of ATP in hippocampus and cortex of rats; and investigation of levels of oxidative stress in the rat brain by measuring activity of superoxide dismutase (SOD, which is an oxygen free-radical scavenger), glutathione peroxidase (GSH-Px, which scavenges lipid peroxides induced by reactive oxygen species and —OH), nitric oxide synthase (NOS), malondialdehyde (MDA), and nitric oxide (NO). […] Expression of synaptic associated proteins SYP and PSD95 was detected by Western blotting. […] Experimental results were statistically analyzed using IBM SPSS 21.0 software. […]

[4] = system: nitric oxide synthase (NOS); assay: NOS activity in cerebral cortex, multiple cerebral infarction dementia rats; format: in vivo, SD rats; conditions: compared with the model group, p<0.05
Method: Compound 4, 120 mg/kg, bid; D. Compound 4, 240 mg/kg, bid; E. Compound 4, 480 mg/kg, bid; F. Donepezil, 0.9 mg/kg. Compared with sham operation group: ### P<0.001; Compared with the model group: ** P<0.01, *** P<0.001.
135 SPF grade SD rats (75 females, 60 males, weighing 200-220 g) were used. Anesthesia was performed by intraperitoneal injection of 3.5% chloral hydrate (350 mg/kg). After dorsal fixation, neck hair removal and iodophor disinfection, animals were cut along the middle of the neck to separate the right common carotid artery, external carotid artery and internal carotid artery. The common carotid artery was temporarily clamped by the artery clamp, the left external carotid artery was retrogradely punctured to the beginning of the left internal carotid artery with a pediatric scalp needle, and then 0.4 ml of embolic normal saline suspension was slowly injected with a syringe (the preparation of embolic normal saline suspension was as follows: blood was collected from the abdominal aorta of the same rat, dried naturally in a 37° C. incubator, and prepared for 80-200 minutes to form a blood clot; during application, 0.3 ml normal saline was added to every 10 mg blood clot), and the common carotid artery clamp was opened at the same time, then the external carotid artery was ligated and the skin was sutured. […]

[5] = system: rat model of dementia caused by multiple cerebral infarction; assay: Cognitive tests in rat model of dementia caused by multiple cerebral infarction; format: in vivo, SD rats; conditions: for Discrimination coefficient for new objects, p compared with model group / Priority index for new objects, p compared with model group: n = 12-14
Method: 135 SPF grade SD rats (75 females, 60 males, weighing 200-220 g) were used. Anesthesia was performed by intraperitoneal injection of 3.5% chloral hydrate (350 mg/kg). After dorsal fixation, neck hair removal and iodophor disinfection, animals were cut along the middle of the neck to separate the right common carotid artery, external carotid artery and internal carotid artery. The common carotid artery was temporarily clamped by the artery clamp, the left external carotid artery was retrogradely punctured to the beginning of the left internal carotid artery with a pediatric scalp needle, and then 0.4 ml of embolic normal saline suspension was slowly injected with a syringe (the preparation of embolic normal saline suspension was as follows: blood was collected from the abdominal aorta of the same rat, dried naturally in a 37° C. incubator, and prepared for 80-200 minutes to form a blood clot; during application, 0.3 ml normal saline was added to every 10 mg blood clot), and the common carotid artery clamp was opened at the same time, then the external carotid artery was ligated and the skin was sutured. In the sham operation group, 0.4 ml normal saline was used instead of embolic suspension. The experimental animals were randomly divided into 6 groups according to weight balance, as follows: sham operation group, model group, positive control group (donepezil) and test compound group (different doses). There were 12-14 rats in each group. The animals in each group began to give drugs by gavage after modeling until the end of the experiment. The animals underwent Y maze experiment on the 16th day of administration, new object discrimination experiment on the 17th-20th day, Morris water maze experiment on the 22nd-27th day, and dark avoidance experiment on the 28th-29th day. On the 30th day, animals were sacrificed and tissues harvested for analysis.
The main pathological indexes included investigation of the improvement of learning and memory impairment in the dementia model animal by test compound using behavioral experimental methods such as Y maze, new object discrimination, Morris water maze and passive avoidance test (dark avoidance); investigation of the protective effect of test compound on mitochondria by detecting the content of ATP in hippocampus and cortex of rats; and investigation of levels of oxidative stress in the rat brain by measuring activity of superoxide dismutase (SOD, which is an oxygen free-radical scavenger), glutathione peroxidase (GSH-Px, which scavenges lipid peroxides induced by reactive oxygen species and —OH), nitric oxide synthase (NOS), malondialdehyde (MDA), and nitric oxide (NO). The ultrastructure of nerve cells (including nucleus, mitochondria and synapse) was investigated using immunofluorescence and transmission electron microscope. Expression of synaptic associated proteins SYP and PSD95 was detected by Western blotting. Experimental results for compound 4 on the concentration of nitric oxide (NO), the activity of nitric oxide synthase (NOS) and the ultrastructure of nerve cells in the rat model of dementia caused by multiple cerebral infarction are shown in FIGS. 7-11. Experimental results were statistically analyzed using IBM SPSS 21.0 software. The differences between groups were compared by one-way ANOVA or two-way ANOVA (water maze directional navigation) and LSD test.

[6] = system: Bcl-2; assay: Bcl-2 expression by Western blotting, ischemia-reperfusion dementia mice; format: in vivo, C57BL/6J mice
Method: 140 healthy C57BL/6J mice, including 70 males and 70 females, were used. 1% Pentobarbital Sodium (50 mg/kg) was injected intraperitoneally to anesthetize the mice. The back position was fixed, the neck hair was removed, and the common carotid arteries were cut along the middle of the neck after iodophor disinfection. The common carotid arteries were separated, clamped with a noninvasive artery clamp for 15 minutes, released for 10 minutes, and then clamped for 10 minutes. Penicillin powder was then applied to suture muscles and skin. The sham operation group was not clamped, and other operations were the same as for the model group. […]
as §2

[7] = mice, gavage, morning and evening
[8] = Test group vs model group, n = 12-14, dose not given
[9] = first listing in Table VII, Test group vs model group
[10] = second listing in Table VII, Test group vs model group

## [2H]C([2H])(CCS(=O)(=O)O)NC(=O)[C@@H](N)C(C)C [compound 4, 3-((L-valyl)amino)-3,3-dideuterium-1-propanesulfonic Acid]
[1]; [7]
  priority index to new objects in the new object discrimination experiment: improved
  spontaneous alternating response rate in the Y maze experiment: significantly improved
  swimming time in the target quadrant in the water maze test: prolonged
[1]; vascular dementia mice caused by cerebral ischemia-reperfusion
  working memory, image recognition memory, spatial memory and long-term memory impairment: can significantly improve
[2]
  arrangement and morphology of neuronal cells in hippocampal CA1 area and CA3 area: significantly improved
  deep staining pyknosis of nuclei in cerebral cortex: significantly reduced
[2]; hippocampal CA1 and CA3 area
  deep staining pyknosis of nuclei: significantly reduced
[3]
  PSD95 expression: significantly increased
[4]
  NOS activity: significantly reduced
[5]; [8]
  Percentage of swimming distance, p compared with model group: p < 0.001
  Spontaneous alternating response rate, p compared with model group: p < 0.001
  Swimming time in target quadrant, p compared with model group: p < 0.05
  The incubation period for entering the darkroom, p compared with model group: p < 0.05
  Times of threading, p compared with model group: p < 0.05
[5]; [9]
  Discrimination coefficient for new objects, p compared with model group: p < 0.05
  Priority index for new objects, p compared with model group: p < 0.05
[5]; rat model of dementia caused by multiple infarction
  working memory, image recognition and memory, spatial memory and long-term memory impairment: may improve
[5]; rats, gavage
  discrimination coefficient to new objects in the new object discrimination experiment: can improve
  escape latency of directional navigation: can improve
  number of errors entering the dark room in the dark avoidance experiment: can improve
  number of times of crossing the platform: can improve
  percentage of swimming distance in the target quadrant: can improve
  priority index to new objects in the new object discrimination experiment: can improve
  spontaneous alternating reaction rate in the Y maze: can improve
  swimming time in the target quadrant: can improve
  total swimming distance in the water maze test: can improve
[5]; [10]
  Discrimination coefficient for new objects, p compared with model group: p < 0.05
  Priority index for new objects, p compared with model group: p < 0.01
[6]; Test group vs model group, n = 15-17, dose not stated
  Bcl-2 expression, p compared with model group: p < 0.01
[6]; compared with the model group
  expression of Bcl-2: increased
